From ChEMBL document CHEMBL1641373, “Trishomocubane as a scaffold for the development of selective dopamine transporter (DAT) ligands” (Bioorg Med Chem Lett, 2011)

Columns and labels:
[1] = target: T1, 5-hydroxytryptamine receptor 1A (Homo sapiens) (UniProt P08908); experiment: Inhibition of 5HT1A receptor at 10 uM
T1 sequence (whole entry): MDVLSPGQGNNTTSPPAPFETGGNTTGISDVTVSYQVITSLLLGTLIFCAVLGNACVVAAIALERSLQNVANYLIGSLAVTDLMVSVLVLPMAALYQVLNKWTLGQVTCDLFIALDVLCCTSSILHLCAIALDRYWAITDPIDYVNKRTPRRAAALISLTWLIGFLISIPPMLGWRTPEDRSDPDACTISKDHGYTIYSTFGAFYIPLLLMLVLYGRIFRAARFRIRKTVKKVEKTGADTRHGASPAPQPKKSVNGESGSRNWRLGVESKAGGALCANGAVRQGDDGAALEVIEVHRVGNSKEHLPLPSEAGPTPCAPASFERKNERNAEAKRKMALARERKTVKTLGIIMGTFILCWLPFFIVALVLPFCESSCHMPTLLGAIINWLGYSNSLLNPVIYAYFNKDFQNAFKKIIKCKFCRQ

[2] = target: Sigma non-opioid intracellular receptor 1 (Rattus norvegicus, UniProt Q9R0C9); experiment: Displacement of (+)-[3H]pentazocine from sigma 1 receptor in rat PC12 cells; format: cell-based, PC-12
Chain of Sigma non-opioid intracellular receptor 1 (Q9R0C9 whole entry): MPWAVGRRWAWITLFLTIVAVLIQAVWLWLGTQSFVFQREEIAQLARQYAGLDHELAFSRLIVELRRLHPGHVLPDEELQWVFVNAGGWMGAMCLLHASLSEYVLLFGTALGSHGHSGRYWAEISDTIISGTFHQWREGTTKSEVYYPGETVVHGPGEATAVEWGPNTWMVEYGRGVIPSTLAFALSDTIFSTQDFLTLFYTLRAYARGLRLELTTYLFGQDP

[3] = target: Histamine H3 receptor (Homo sapiens) (UniProt Q9Y5N1); experiment: Inhibition of H3 receptor at 10 uM
Chain of Histamine H3 receptor (Homo sapiens) (Q9Y5N1 whole entry): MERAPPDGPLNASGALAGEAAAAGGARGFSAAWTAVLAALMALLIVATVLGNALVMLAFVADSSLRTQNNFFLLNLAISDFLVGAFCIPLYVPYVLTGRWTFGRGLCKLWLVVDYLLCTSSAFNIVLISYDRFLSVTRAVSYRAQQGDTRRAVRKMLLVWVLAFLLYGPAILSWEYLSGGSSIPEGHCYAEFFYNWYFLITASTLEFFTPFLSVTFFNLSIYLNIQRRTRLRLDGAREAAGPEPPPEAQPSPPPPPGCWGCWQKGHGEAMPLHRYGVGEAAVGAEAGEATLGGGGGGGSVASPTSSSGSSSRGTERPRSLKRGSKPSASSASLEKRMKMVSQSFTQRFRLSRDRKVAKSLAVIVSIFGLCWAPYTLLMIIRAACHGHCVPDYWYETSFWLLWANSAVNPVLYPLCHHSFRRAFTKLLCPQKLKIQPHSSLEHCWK

[4] = target: Kappa-type opioid receptor (Homo sapiens) (UniProt P41145); experiment: Inhibition of kappa opioid receptor at 10 uM
Chain of Kappa-type opioid receptor (Homo sapiens) (P41145 whole entry): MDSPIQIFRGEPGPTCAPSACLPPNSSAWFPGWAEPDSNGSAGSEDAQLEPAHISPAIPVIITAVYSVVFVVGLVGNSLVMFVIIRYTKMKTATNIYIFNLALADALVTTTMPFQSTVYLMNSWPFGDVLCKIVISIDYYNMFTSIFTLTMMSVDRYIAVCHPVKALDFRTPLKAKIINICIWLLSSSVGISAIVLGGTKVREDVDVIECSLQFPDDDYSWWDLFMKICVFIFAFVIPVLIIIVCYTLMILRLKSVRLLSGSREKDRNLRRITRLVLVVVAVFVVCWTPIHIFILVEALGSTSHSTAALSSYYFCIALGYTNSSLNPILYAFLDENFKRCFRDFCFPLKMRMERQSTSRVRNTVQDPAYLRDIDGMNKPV

[5] = target: Sodium-dependent dopamine transporter (Homo sapiens, UniProt Q01959); experiment: Displacement of [3H]WIN-35428 form human DAT expressed in HEK cell membranes; parameters: species or system HEK293
Chain of Sodium-dependent dopamine transporter (Q01959 whole entry): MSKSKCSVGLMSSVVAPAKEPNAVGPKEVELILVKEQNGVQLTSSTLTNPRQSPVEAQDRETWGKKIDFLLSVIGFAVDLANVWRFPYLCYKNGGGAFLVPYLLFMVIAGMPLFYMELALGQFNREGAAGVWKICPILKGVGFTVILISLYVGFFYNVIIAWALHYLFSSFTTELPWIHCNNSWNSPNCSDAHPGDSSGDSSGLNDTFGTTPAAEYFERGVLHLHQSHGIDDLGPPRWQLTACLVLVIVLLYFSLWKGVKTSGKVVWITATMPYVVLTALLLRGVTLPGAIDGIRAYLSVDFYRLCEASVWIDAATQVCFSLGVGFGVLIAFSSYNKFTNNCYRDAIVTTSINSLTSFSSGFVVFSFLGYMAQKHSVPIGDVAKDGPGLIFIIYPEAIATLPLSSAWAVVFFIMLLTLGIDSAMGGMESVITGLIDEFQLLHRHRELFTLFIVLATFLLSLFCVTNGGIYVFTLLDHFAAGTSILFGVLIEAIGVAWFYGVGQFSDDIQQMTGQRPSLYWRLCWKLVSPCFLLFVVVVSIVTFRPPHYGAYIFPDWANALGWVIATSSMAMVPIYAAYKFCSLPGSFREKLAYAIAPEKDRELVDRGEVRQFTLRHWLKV

[6] = target: 5-hydroxytryptamine receptor 1D (Homo sapiens) (UniProt P28221); experiment: Inhibition of 5HT1D receptor at 10 uM
Chain of 5-hydroxytryptamine receptor 1D (Homo sapiens) (P28221 whole entry): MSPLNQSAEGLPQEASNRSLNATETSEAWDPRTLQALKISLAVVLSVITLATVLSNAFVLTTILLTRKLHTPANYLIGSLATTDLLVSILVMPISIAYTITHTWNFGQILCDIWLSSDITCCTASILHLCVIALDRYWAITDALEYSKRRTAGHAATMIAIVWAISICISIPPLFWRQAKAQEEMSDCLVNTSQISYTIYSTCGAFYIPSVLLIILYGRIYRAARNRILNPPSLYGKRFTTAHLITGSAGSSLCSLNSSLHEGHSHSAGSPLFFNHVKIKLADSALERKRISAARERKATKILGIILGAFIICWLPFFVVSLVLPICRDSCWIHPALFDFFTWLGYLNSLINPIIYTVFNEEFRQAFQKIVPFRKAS

D(3) dopamine receptor = D(3) dopamine receptor (Homo sapiens, UniProt P35462); experiment: Inhibition of dopamine D3 receptor
Chain of D(3) dopamine receptor (P35462 whole entry): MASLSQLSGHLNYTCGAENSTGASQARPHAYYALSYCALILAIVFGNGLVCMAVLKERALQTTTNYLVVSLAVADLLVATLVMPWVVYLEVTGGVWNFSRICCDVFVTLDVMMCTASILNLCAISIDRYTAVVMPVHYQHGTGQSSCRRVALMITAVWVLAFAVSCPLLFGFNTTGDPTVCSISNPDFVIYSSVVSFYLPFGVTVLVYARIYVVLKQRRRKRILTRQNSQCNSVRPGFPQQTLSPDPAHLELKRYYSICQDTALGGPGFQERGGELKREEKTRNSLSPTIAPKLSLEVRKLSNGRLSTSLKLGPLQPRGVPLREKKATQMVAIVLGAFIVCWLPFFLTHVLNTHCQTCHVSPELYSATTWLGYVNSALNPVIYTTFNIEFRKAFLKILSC

Histamine H2 receptor = Histamine H2 receptor (Homo sapiens, UniProt P25021); experiment: Inhibition of H2 receptor
Chain of Histamine H2 receptor (P25021 whole entry): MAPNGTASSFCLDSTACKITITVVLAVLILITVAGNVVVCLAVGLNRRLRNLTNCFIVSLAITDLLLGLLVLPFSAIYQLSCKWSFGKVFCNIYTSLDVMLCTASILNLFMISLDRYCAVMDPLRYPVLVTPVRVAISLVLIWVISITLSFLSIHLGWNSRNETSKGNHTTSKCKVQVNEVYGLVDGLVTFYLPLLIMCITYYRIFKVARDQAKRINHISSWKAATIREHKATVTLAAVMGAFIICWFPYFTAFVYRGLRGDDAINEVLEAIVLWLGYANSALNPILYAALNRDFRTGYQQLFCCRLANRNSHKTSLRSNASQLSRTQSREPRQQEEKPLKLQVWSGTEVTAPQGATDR

[7] = target: Mu-type opioid receptor (Homo sapiens) (UniProt P35372); experiment: Inhibition of mu opioid receptor at 10 uM
Chain of Mu-type opioid receptor (Homo sapiens) (P35372 whole entry): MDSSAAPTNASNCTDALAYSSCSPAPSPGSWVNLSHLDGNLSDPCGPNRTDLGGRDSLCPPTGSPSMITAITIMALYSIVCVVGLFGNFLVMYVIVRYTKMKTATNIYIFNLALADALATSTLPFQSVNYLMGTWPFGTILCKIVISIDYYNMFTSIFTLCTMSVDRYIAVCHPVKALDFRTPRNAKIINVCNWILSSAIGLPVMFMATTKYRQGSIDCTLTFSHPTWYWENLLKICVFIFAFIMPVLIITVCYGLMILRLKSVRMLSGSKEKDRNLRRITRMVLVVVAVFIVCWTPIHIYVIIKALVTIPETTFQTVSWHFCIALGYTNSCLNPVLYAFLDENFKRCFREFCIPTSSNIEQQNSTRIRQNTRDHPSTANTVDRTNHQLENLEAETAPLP

[8] = target: T2, D(4) dopamine receptor (Homo sapiens) (UniProt P21917); experiment: Inhibition of dopamine D4 receptor at 10 uM
T2 sequence (whole entry): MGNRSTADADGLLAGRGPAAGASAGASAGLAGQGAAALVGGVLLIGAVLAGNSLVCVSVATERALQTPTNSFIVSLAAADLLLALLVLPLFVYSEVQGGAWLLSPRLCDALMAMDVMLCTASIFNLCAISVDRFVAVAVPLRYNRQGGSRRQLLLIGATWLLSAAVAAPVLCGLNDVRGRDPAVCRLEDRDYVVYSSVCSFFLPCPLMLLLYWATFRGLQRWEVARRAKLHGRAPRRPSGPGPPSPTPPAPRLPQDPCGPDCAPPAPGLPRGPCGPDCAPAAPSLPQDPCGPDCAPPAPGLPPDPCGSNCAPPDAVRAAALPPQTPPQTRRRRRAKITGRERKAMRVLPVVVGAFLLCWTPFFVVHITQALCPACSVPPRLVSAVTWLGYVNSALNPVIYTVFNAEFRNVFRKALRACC

[9] = target: 5-hydroxytryptamine receptor 1E (Homo sapiens) (UniProt P28566); experiment: Inhibition of 5HT1E receptor at 10 uM
Chain of 5-hydroxytryptamine receptor 1E (Homo sapiens) (P28566 whole entry): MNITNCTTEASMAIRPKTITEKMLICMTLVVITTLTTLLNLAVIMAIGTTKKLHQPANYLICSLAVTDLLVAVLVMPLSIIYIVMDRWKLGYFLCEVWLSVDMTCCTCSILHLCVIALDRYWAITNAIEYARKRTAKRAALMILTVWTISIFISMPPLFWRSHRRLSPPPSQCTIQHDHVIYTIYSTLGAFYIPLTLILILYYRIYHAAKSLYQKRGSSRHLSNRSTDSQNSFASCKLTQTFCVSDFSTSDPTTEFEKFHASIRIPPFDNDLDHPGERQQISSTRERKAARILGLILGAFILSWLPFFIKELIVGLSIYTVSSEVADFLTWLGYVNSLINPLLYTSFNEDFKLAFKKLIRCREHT

[10] = target: T3, Alpha-1B adrenergic receptor (Homo sapiens) (UniProt P35368); experiment: Inhibition of Alpha-1B adrenergic receptor at 10 uM
T3 sequence (whole entry): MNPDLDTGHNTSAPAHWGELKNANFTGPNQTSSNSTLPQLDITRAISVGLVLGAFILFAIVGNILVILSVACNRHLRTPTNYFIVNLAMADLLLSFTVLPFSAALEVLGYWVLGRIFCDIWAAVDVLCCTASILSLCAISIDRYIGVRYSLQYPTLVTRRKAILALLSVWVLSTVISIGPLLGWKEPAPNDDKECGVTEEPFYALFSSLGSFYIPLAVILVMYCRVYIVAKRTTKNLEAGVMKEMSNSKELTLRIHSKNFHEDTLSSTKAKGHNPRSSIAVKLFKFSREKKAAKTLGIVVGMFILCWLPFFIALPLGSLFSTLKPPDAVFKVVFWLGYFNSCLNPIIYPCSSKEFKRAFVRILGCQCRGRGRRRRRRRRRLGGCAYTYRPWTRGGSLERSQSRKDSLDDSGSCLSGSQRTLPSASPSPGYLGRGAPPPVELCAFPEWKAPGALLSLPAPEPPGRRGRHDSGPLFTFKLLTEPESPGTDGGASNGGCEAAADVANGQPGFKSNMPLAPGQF

[11] = target: 5-hydroxytryptamine receptor 6 (Homo sapiens, UniProt P50406); experiment: Inhibition of 5HT6 receptor at 10 uM
Chain of 5-hydroxytryptamine receptor 6 (P50406 whole entry): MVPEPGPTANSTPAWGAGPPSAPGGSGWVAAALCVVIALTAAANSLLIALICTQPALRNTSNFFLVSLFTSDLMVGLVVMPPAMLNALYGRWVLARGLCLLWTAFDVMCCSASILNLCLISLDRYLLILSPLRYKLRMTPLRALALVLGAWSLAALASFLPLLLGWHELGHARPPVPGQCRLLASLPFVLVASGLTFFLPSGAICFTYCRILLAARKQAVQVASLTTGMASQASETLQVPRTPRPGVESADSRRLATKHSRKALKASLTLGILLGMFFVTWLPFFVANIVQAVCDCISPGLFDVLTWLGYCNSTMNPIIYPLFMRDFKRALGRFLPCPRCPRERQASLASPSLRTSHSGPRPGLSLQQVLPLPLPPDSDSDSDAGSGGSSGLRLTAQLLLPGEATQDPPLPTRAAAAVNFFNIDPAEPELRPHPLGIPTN

[12] = target: T4, Alpha-2A adrenergic receptor (Homo sapiens) (UniProt P08913); experiment: Inhibition of alpha2A adrenergic receptor at 10 uM
T4 sequence (whole entry): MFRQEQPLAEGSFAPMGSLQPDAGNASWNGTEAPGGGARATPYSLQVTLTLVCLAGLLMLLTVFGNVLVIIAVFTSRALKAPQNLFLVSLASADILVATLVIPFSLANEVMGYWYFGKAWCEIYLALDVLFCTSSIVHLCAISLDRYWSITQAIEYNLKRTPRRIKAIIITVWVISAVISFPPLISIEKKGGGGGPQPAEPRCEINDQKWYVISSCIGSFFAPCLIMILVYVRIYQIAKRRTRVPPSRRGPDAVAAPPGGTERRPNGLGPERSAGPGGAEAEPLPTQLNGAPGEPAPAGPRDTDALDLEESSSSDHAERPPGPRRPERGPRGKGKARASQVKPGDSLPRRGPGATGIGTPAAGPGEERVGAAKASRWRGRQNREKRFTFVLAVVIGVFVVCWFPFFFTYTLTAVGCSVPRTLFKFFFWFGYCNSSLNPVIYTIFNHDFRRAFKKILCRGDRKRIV

[13] = target: T5, Muscarinic acetylcholine receptor M4 (Homo sapiens) (UniProt P08173); experiment: Inhibition of muscarinic M4 receptor at 10 uM
T5 sequence (whole entry): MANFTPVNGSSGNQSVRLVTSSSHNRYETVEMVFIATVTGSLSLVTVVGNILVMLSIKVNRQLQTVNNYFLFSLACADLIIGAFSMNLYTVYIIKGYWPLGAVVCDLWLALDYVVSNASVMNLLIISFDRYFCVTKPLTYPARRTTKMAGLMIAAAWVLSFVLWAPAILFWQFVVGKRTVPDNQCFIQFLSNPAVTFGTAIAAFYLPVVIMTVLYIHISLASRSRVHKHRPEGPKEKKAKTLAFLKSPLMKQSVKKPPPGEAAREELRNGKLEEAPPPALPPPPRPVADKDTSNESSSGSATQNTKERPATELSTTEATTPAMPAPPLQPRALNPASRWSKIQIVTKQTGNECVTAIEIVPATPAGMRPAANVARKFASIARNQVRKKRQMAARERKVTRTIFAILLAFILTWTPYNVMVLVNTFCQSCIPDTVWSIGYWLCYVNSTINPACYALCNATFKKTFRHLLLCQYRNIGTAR

| SMILES | inhibition [1] [%] | Ki [2] [nM] | inhibition [3] [%] | inhibition [4] [%] | Ki [5] [nM] | inhibition [6] [%] | Ki (D(3) dopamine receptor) [nM] | Ki (Histamine H2 receptor) [nM] | inhibition [7] [%] | inhibition [8] [%] | inhibition [9] [%] | inhibition [10] [%] | inhibition [11] [%] | inhibition [12] [%] | inhibition [13] [%] |
| --- | --- | --- | --- | --- | --- | --- | --- | --- | --- | --- | --- | --- | --- | --- | --- |
| Fc1cccc(CCN[C@H]2C3C4CC5C6C4CC3C6C52)c1 (stereo not given in full) | < 50 | 19 | < 50 | < 50 | 1680 | < 50 | 5220 | 4420 | < 50 | < 50 | < 50 | < 50 | – | – | – |
| CN(CCc1cccc(F)c1)[C@H]1C2C3CC4C5C3CC2C5C41 (stereo not given in full) | < 50 | 1160 | < 50 | < 50 | 101 | < 50 | > 10000 | 4450 | < 50 | < 50 | < 50 | < 50 | < 50 | < 50 | < 50 |
| CN(Cc1cccc(F)c1)[C@H]1C2C3CC4C5C3CC2C5C41 (stereo not given in full) | < 50 | 1570 | < 50 | < 50 | 1.2 | < 50 | – | – | < 50 | < 50 | < 50 | < 50 | < 50 | < 50 | < 50 |
| Fc1cccc(CN[C@H]2C3C4CC5C6C4CC3C6C52)c1 (stereo not given in full) | < 50 | 198 | < 50 | < 50 | 3440 | < 50 | 7160 | 2150 | < 50 | < 50 | < 50 | < 50 | < 50 | < 50 | < 50 |
